Test results published in publication PMC10551889 (Bioorganic & medicinal chemistry, 2022).
“Also recorded” adds a separate entry of the source.

The compounds below were run on M. bovis BCG Pasteur ATCC 35734 (assay: not given).
Type: cell-based, Mycobacterium bovis BCG

Structure (SMILES) | antimycobacterial activity (in words) | MIC50 (MIC, concentration that inhibits fifty percent of growth) [µM] | fold less potent than POA [fold]
O=C([O-])c1cnc(NC2CCC2)cn1.[Na+] [compound 48, Sodium 5-(cyclobutylamino)pyrazine-2-carboxylate] | Loss of potency |  | 
CCCCNc1cnc(C(=O)[O-])cn1.[Na+] [compound 72, Sodium 5-(n-butylamino)pyrazine-2-carboxylate] |  | 400 | 
CC(=O)NS(=O)(=O)c1cnccn1 [compound 15, N-(Pyrazin-2-ylsulfonyl)acetamide] | inactive or weakly active |  | 
CCNc1cnc(C(=O)[O-])cn1.[Na+] [compound 42, Sodium 5-(ethylamino)pyrazine-2-carboxylate] | Loss of potency |  | 
NC(=S)c1cnccn1 [compound 13] | inactive or weakly active |  | 
NS(=O)(=O)c1cnccn1 [compound 14] | inactive or weakly active |  | 
O=C([O-])c1nccnc1N1CCSCC1.[Na+] [compound 65, Sodium 3-(thiomorpholino)pyrazine-2-carboxylate] | abolished activity |  | 
CCN(CC)c1nccnc1C(=O)[O-].[Na+] [compound 58, Sodium 3-(diethylamino)pyrazine-2-carboxylate] | loss of activity |  | 
O=C([O-])c1nccnc1N1CCOCC1.[Na+] [compound 64, Sodium 3-(morpholino)pyrazine-2-carboxylate] | abolished activity |  | 
Nc1cncc(C(=O)O)n1 [compound 25, 6-amino-POA] | loss of activity |  | 
O=C([O-])c1cncc(-c2ccccc2)n1.[Na+] [compound 40, Sodium 6-phenylpyrazine-2-carboxylate] |  |  | ~2
O=C([O-])c1cnc(NC2CCCC2)cn1.[Na+] [compound 76, Sodium 5-(cyclopentylamino)pyrazine-2-carboxylate] | Loss of potency |  | 
CCCNc1cnc(C(=O)[O-])cn1.[Na+] [compound 70, Sodium 5-(n-propylamino)pyrazine-2-carboxylate] | Loss of potency |  | 
c1cnc(-c2nnn[nH]2)cn1 [compound 12, 2-(1H-Tetrazol-5-yl)pyrazine] | inactive or weakly active |  | 
Cc1ccccc1-c1nccnc1C(=O)[O-].[Na+] [compound 36, Sodium 3-(o-tolyl)pyrazine-2-carboxylate] | completed obliterated activity |  | 
CC(=O)c1cnccn1 [compound 16] | eliminated activity |  | 
O=C([O-])c1cnc(-c2ccccc2)cn1.[Na+] [compound 39, Sodium 5-(phenyl)pyrazine-2-carboxylate] | eliminated activity |  | 
O=C([O-])c1cncc(NC(=O)C2CCCCC2)n1.[Na+] [compound 80, Sodium 6-(cyclohexanecarboxamido)pyrazine-2-carboxylate] | obliterated activity |  | 
CC(C)Nc1cnc(C(=O)[O-])cn1.[Na+] [compound 71, Sodium 5-(2-propylamino)pyrazine-2-carboxylate] | Loss of potency |  | 
O=C([O-])c1nccnc1N1CCCC1.[Na+] [compound 62, Sodium 3-(pyrrolidine-1-yl)pyrazine-2-carboxylate] | abolished activity |  | 
O=C([O-])c1nccnc1N1CCC2(CC1)CC2.[Na+] [compound 66, Sodium 3-(6-azaspiro[2,5]octan-6-yl)pyrazine-2-carboxylate] | abolished activity |  | 
O=C([O-])c1nccnc1N1CCCCC1.[Na+] [compound 63, Sodium 3-(piperidin-1-yl)pyrazine-2-carboxylate] | abolished activity |  | 
CCN(CC)c1cnc(C(=O)[O-])cn1.[Na+] [compound 73, Sodium 5-(diethylamino)pyrazine-2-carboxylate] | equipotent to the parent POA |  | 

Each compound was assayed on M. bovis BCG mutant POA2 (PanD Leu132Arg) (assay: not given).
Type: cell-based, Mycobacterium bovis BCG

Structure (SMILES) | shift in growth inhibition potency against PanD mutant vs wildtype (in words)
O=C([O-])c1nccnc1Nc1ccccc1.[Na+] [compound 59, Sodium 3-(anilino)pyrazine-2-carboxylate] | moderate shift
CCCNc1nccnc1C(=O)[O-].[Na+] [compound 54, Sodium 3-(propylamino)pyrazine-2-carboxylate] | moderate shift
Nc1nccnc1C(=O)O [compound 23] | minimal shift
Nc1cnc(C(=O)O)cn1 [compound 24] | moderate shift
CC(C)Nc1nccnc1C(=O)[O-].[Na+] [compound 55, Sodium 3-(2-propylamino)pyrazine-2-carboxylate] | moderate shift

These compounds were tested against Mtb PanD (Mycobacterium tuberculosis, UniProt P9WIL3) (assay: biochemical).
Type: binding

Mtb PanD, sequence (P9WIL3 25-139): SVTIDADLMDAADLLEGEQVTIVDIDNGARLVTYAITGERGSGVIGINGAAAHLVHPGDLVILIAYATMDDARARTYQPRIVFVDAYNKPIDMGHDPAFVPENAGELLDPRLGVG
Mtb PanD, sequence (P9WIL3 1-24): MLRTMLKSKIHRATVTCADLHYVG

Structure (SMILES) | PanD binding (in words) | Kd [µM]
CCN(CC)c1nccnc1C(=O)[O-].[Na+] [compound 58, Sodium 3-(diethylamino)pyrazine-2-carboxylate] | no binding; also recorded: did not bind at all; also recorded: did not bind to PanD | 
Nc1nccnc1C(=O)O [compound 23] |  | 37 to 47
Nc1cnc(C(=O)O)cn1 [compound 24] |  | 37 to 47

These compounds were tested on Vero cells (assay: not given).

Structure (SMILES) | cytotoxicity at higher concentrations
CC(C)(C)Nc1nccnc1C(=O)[O-].[Na+] [compound 56, Sodium 3-(tert-butylamino)pyrazine-2-carboxylate] | ~ 50%
